{"source": "patent US20230167105A1", "about": "“BCL-2 PROTEIN INHIBITORS” (Recurium IP Holdings, LLC, priority 2020, published 2023)", "key": {"MOLT-4 cells": {"test_system": "MOLT-4 cells", "assay": "MOLT-4 Cell Proliferation Assay (CellTiter-Glo)", "format": "cell-based", "settings": "Homo sapiens, 72 h, read-out: MOLT-4 CTG IC50", "summary_of_the_method": "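MOLT-4 cells at 50,000/well in serum-supplemented medium received a 10-point 1:3 dilution series (top 10 μM final, 0.1% DMSO) in duplicate for 72 h at 37 °C. Viability was read as CellTiter-Glo luminescence, and IC50 came from nonlinear regression.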"}, "Bcl-xL": {"target": "T1, Bcl-xL (Homo sapiens, UniProt Q07817)", "T1 construct": "endogenous in cells; host or cells: MOLT-4 (ATCC CRL-1582)", "T1 sequence (Q07817 whole entry)": "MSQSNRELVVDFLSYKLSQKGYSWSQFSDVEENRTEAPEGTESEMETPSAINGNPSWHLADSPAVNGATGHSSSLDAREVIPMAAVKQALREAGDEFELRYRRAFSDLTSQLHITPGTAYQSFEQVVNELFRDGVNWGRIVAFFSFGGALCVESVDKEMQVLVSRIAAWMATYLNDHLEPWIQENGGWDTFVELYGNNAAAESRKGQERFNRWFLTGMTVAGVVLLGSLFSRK", "assay": "Protein Degradation Assay in MOLT-4 Cells (Western blot)", "format": "cell-based", "settings": "for BCL-xL degradation in MOLT-4 cells: 50 nM compound, 16 hours, FIGS. 7 and 8", "method": "MOLT-4 (ATCC, CRL-1582) (FIGS. 7,8) were incubated with vehicle or 50 nM concentrations of the indicated compounds for 16 hours. For proteasome inhibition, MOLT-4 cells (250,000 cells/well) were pretreated with 1 μM of MG132 for 1 hour before the addition of 100 nM of the indicated compounds for 16 h. After treatment, the cells were harvested in RIPA lysis buffer supplemented with 1% Phosphatase Inhibitor and Protease Inhibitor Cocktail. An equal amount of protein (10 μg/lane) from each cell extract was resolved on a 4-12% Bis-Tris gel. Proteins were transferred using iBlot 2 Transfer Stacks. The membranes were blocked with 5% nonfat milk in TBS-T buffer (50 mM Tris-HCL, pH 7.6; 150 mM NaCl; and 0.05% Tween) and probed with primary antibodies (1:1000 dilution) overnight at 4° C. After three washes with TBS-T (10 min/wash), the membranes were incubated with an appropriate peroxidase-conjugated secondary antibody (Cell Signaling Technology, USA) for 1 hour at rt. After three washes with TBS-T, the proteins of interest were detected with ECL Western Blotting Detection Reagents and captured with an Azure imaging system. The band intensities were determined using ImageJ software and normalized to loading control β-actin or GAPDH. The primary antibodies Bcl-xL (#2762), Bcl-2 (#2872s), and GAPDH (#5174) were purchased from Cell Signaling Technology."}}, "note": "pIC50: −log10 of the molar value."}
{"compound": "Cc1ncsc1-c1ccc([C@H](C)NC(=O)[C@@H]2C[C@@H](O)CN2C(=O)[C@@H](NC(=O)CCCCCCCN(C)CC[C@H](CSc2ccccc2)Nc2ccc(S(=O)(=O)NC(=O)c3ccc(N4CCN(CC5=C(C67CC(C(F)F)(C6)C7)CC(C)(C)CC5)CC4)cc3)cc2S(=O)(=O)C(F)(F)F)C(C)(C)C)cc1", "note": "[Example 28, (2S,4R)-1-((S)-2-(8-(((R)-3-((4-(N-(4-(4-((2-(3-(difluoromethyl)bicyclo[1.1.1]pentan-1-yl)-4,4-dimethylcyclohex-1-en-1-yl)methyl)piperazin-1-yl)benzoyl)sulfamoyl)-2-((trifluoromethyl)sulfonyl)phenyl)amino)-4-(phenylthio)butyl)(methyl)amino)octanamido)-3,3-dimethylbutanoyl)-4-hydroxy-N—((S)-1-(4-(4-methylthiazol-5-yl)phenyl)ethyl)pyrrolidine-2-carboxamide]", "values": [{"measurement": "pIC50", "setting": "MOLT-4 cells", "value": "6.82 to 7.30"}, {"measurement": "BCL-xL degradation in MOLT-4 cells", "setting": "Bcl-xL", "value": "induce BCL-xL degradation"}]}
{"compound": "Cc1ncsc1-c1ccc([C@H](C)NC(=O)[C@@H]2C[C@@H](O)CN2C(=O)[C@@H](NC(=O)CCCCCC(=O)N2CCN(CC[C@H](CSc3ccccc3)Nc3ccc(S(=O)(=O)NC(=O)c4ccc(N5CCN(CC6=C(C78CC(C)(C7)C8)CC(C)(C)CC6)CC5)cc4)cc3S(=O)(=O)C(F)(F)F)CC2)C(C)(C)C)cc1", "note": "[Example 9, (2S,4R)-1-((S)-2-(7-(4-((R)-3-((4-(N-(4-(4-((4,4-dimethyl-2-(3-methylbicyclo[1.1.1]pentan-1-yl)cyclohex-1-en-1-yl)methyl)piperazin-1-yl)benzoyl)sulfamoyl)-2-((trifluoromethyl)sulfonyl)phenyl)amino)-4-(phenylthio)butyl)piperazin-1-yl)-7-oxoheptanamido)-3,3-dimethylbutanoyl)-4-hydroxy-N—((S)-1-(4-(4-methylthiazol-5-yl)phenyl)ethyl)pyrrolidine-2-carboxamide]", "values": [{"measurement": "pIC50", "setting": "MOLT-4 cells", "value": "6.82 to 7.30"}, {"measurement": "BCL-xL degradation in MOLT-4 cells", "setting": "Bcl-xL", "value": "induce BCL-xL degradation"}]}
{"compound": "CC1(C)CCC(CN2CCN(c3ccc(C(=O)NS(=O)(=O)c4ccc(N[C@H](CCN5CCN(CCCC#Cc6ccc7c(c6)CN(C6CCC(=O)NC6=O)C7=O)CC5)CSc5ccccc5)c(S(=O)(=O)C(F)(F)F)c4)cc3)CC2)=C(C23CC(C(F)F)(C2)C3)C1", "note": "(stereo partly drawn) [Example 30]", "values": [{"measurement": "pIC50", "setting": "MOLT-4 cells", "value": "≥ 7.30"}, {"measurement": "BCL-xL degradation in MOLT-4 cells, dose dependence", "setting": "Bcl-xL; FIG. 9", "value": "can induce BCL-xL degradation in MOLT-4 cells in a dose dependent manner"}, {"measurement": "Bcl-xL degradation with proteasome inhibitor MG132", "setting": "Bcl-xL; MOLT-4 cells pretreated with 1 μM MG132 for 1 hour, then 100 nM compound for 16 h, FIG. 10", "value": "can be inhibited by proteasome inhibitor MG132"}]}
{"compound": "Cc1ncsc1-c1ccc([C@H](C)NC(=O)[C@@H]2C[C@@H](O)CN2C(=O)[C@@H](NC(=O)CCCCCC(=O)N(C)C2CCN(CC[C@H](CSc3ccccc3)Nc3ccc(S(=O)(=O)NC(=O)c4ccc(N5CCN(CC6=C(C78CC(C(F)F)(C7)C8)CC(C)(C)CC6)CC5)cc4)cc3S(=O)(=O)C(F)(F)F)CC2)C(C)(C)C)cc1", "note": "[Example 44, N1-(1-((R)-3-((4-(N-(4-(4-((2-(3-(difluoromethyl)bicyclo[1.1.1]pentan-1-yl)-4,4-dimethylcyclohex-1-en-1-yl)methyl)piperazin-1-yl)benzoyl)sulfamoyl)-2-((trifluoromethyl)sulfonyl)phenyl)amino)-4-(phenylthio)butyl)piperidin-4-yl)-N7-((S)-1-((2S,4R)-4-hydroxy-2-(((S)-1-(4-(4-methylthiazol-5-yl)phenyl)ethyl)carbamoyl)pyrrolidin-1-yl)-3,3-dimethyl-1-oxobutan-2-yl)-N1-methylheptanediamide]", "values": [{"measurement": "pIC50", "setting": "MOLT-4 cells", "value": "6.82 to 7.30"}, {"measurement": "BCL-xL degradation in MOLT-4 cells", "setting": "Bcl-xL", "value": "induce BCL-xL degradation"}]}
